Laboratory results reported in patent US8901118B2, “Compounds and methods for kinase modulation, and indications therefor” (Plexxikon Inc., priority 2010, dated 2014).

What was measured:
CYP2C9 = CYP2C9 (Homo sapiens, UniProt P11712); assay: CYP2C9 inhibition (fluorescent substrate MFC); type: in vitro ADME; settings: read-out: Cyp IC50 2C9
In short: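 Test compounds, 10-point 1:1 serial dilutions in NADPH-regenerating cofactor mix, were preincubated 10 min at 37° C before recombinant enzyme and fluorogenic substrate reactions at 37° C (CYP1A2 15 min; CYP2C9 45 min; CYP2C19, 2D6 30 min). Product fluorescence was read at 409 ex with 460 em (1A2, 2C19) or 530 em (2C9, 2D6), and IC50 fitted from signal versus concentration.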

BCR-NTRK2 BaF3 cells = target: T1, BCR-NTRK2 BaF3 cells (Homo sapiens, UniProt Q16620); assay: BaF3 BCR-NTRK2 cell proliferation assay (ATPlite); type: cell-based; settings: read-out: Inhibition of Cell Proliferation IC50, BCR/BaF3 TrkB
T1 construct: fused on or other part: P11274 (Breakpoint cluster region protein)
T1 sequence (Q16620 538-807): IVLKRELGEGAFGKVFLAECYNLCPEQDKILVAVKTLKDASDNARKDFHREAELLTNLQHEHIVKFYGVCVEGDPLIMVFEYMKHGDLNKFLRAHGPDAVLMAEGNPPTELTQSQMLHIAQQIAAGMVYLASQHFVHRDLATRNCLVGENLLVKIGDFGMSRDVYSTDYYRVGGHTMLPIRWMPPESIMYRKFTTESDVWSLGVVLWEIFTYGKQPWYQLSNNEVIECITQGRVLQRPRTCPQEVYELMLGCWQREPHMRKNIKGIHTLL
In short: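 Growth inhibition over 3 days at 37 °C; IC50 from ATPlite luminescence, 8 concentrations (1:3 steps, max 10 μM). BaF3 fusion lines were tested without IL-3.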

Chain of CYP2C9 (P11712 whole entry): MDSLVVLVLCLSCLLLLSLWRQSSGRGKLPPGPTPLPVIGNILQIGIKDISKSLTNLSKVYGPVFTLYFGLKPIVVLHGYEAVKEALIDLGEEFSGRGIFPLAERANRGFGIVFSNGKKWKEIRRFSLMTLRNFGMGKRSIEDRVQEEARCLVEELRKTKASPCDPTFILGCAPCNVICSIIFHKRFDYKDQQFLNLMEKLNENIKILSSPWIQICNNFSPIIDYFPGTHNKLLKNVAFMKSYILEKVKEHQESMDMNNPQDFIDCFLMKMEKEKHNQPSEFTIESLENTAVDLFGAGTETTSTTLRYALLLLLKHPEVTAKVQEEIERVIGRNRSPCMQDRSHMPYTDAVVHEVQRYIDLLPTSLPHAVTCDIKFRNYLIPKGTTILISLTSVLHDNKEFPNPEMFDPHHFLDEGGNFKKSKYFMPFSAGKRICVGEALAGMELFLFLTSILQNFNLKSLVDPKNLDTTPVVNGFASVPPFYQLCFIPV

IC50 (CYP2C9) [µM]	IC50 (BCR-NTRK2 BaF3 cells) [µM]	SMILES
< 5	< 0.1	COc1cncc(Nc2ccc(C(=O)c3c[nH]c4ncnc(NC(C)C)c34)c(F)n2)c1 [Compound P-4106, [2-fluoro-6-[(5-methoxy-3-pyridyl)amino]-3-pyridyl]-[4-(isopropylamino)-7H-pyrrolo[2,3-d]pyrimidin-5-yl]methanone]
< 5	< 0.1	COc1cncc(Nc2ccc(C(=O)c3c[nH]c4ncnc(NC5CC5)c34)c(F)n2)c1 [Compound P-4107, [4-(cyclopropylamino)-7H-pyrrolo[2,3-d]pyrimidin-5-yl]-[2-fluoro-6-[(5-methoxy-3-pyridyl)amino]-3-pyridyl]methanone]
< 5	< 1	CNc1ncnc2[nH]cc(C(=O)c3ccc(Nc4cncc(OC)c4)nc3F)c12 [Compound P-4108, [2-fluoro-6-[(5-methoxy-3-pyridyl)amino]-3-pyridyl]-[4-(methylamino)-7H-pyrrolo[2,3-d]pyrimidin-5-yl]methanone]
5 to 10	< 1	CC(C)Nc1ncnc2[nH]cc(C(=O)c3ccc(NC4CCCCC4)nc3Cl)c12 [Compound P-4109, [2-chloro-6-(cyclohexylamino)-3-pyridyl]-[4-(isopropylamino)-7H-pyrrolo[2,3-d]pyrimidin-5-yl]methanone]
< 5	> 1	CNc1ncnc2[nH]cc(C(=O)c3ccc(NC4CCCCC4)nc3Cl)c12 [Compound P-4110, [2-chloro-6-(cyclohexylamino)-3-pyridyl]-[4-(methylamino)-7H-pyrrolo[2,3-d]pyrimidin-5-yl]methanone]
5 to 10	< 0.01	Cc1ccc(Nc2ccc(C(=O)c3c[nH]c4ncnc(NC5CCCCC5)c34)c(F)n2)cn1 [Compound P-4111, [4-(cyclohexylamino)-7H-pyrrolo[2,3-d]pyrimidin-5-yl]-[2-fluoro-6-[(6-methyl-3-pyridyl)amino]-3-pyridyl]methanone]
< 5	< 0.1	Cc1ccc(Nc2ccc(C(=O)c3c[nH]c4ncnc(NCC(F)(F)F)c34)c(F)n2)cn1 [Compound P-4112, [2-fluoro-6-[(6-methyl-3-pyridyl)amino]-3-pyridyl]-[4-(2,2,2-trifluoroethylamino)-7H-pyrrolo[2,3-d]pyrimidin-5-yl]methanone]
< 5	< 0.1	CNc1ncnc2[nH]cc(C(=O)c3ccc(Nc4ccc(C)nc4)nc3F)c12 [Compound P-4115, [2-fluoro-6-[(6-methyl-3-pyridyl)amino]-3-pyridyl]-[4-(methylamino)-7H-pyrrolo[2,3-d]pyrimidin-5-yl]methanone]
> 10	< 0.01	CCc1ccc(Nc2ccc(C(=O)c3c[nH]c4ncnc(NC5CCOCC5)c34)c(F)n2)cn1 [Compound P-4116, [6-[(6-ethyl-3-pyridyl)amino]-2-fluoro-3-pyridyl]-[4-(tetrahydropyran-4-ylamino)-7H-pyrrolo[2,3-d]pyrimidin-5-yl]methanone]
5 to 10	< 0.01	CCc1ccc(Nc2ccc(C(=O)c3c[nH]c4ncnc(NC(C)C)c34)c(F)n2)cn1 [Compound P-4117, [6-[(6-ethyl-3-pyridyl)amino]-2-fluoro-3-pyridyl]-[4-(isopropylamino)-7H-pyrrolo[2,3-d]pyrimidin-5-yl]methanone]
> 10	< 0.01	CCc1ccc(Nc2ccc(C(=O)c3c[nH]c4ncnc(NCC5CC5)c34)c(F)n2)cn1 [Compound P-4118, [4-(cyclopropylmethylamino)-7H-pyrrolo[2,3-d]pyrimidin-5-yl]-[6-[(6-ethyl-3-pyridyl)amino]-2-fluoro-3-pyridyl]methanone]
> 10	< 0.01	CCc1ccc(Nc2ccc(C(=O)c3c[nH]c4ncnc(NCCOC)c34)c(F)n2)cn1 [Compound P-4119, [6-[(6-ethyl-3-pyridyl)amino]-2-fluoro-3-pyridyl]-[4-(2-methoxyethylamino)-7H-pyrrolo[2,3-d]pyrimidin-5-yl]methanone]
